One assay has as its system P. aeruginosa 125A. Briefly: MIC, CLSI broth microdilution in BD Phoenix AST Broth. It is filed as cell-based, Pseudomonas aeruginosa. The following applies: strain 125A; for MIC: Pseudomonas aeruginosa, agent alone, 37°C, 18–22 h, three biological replicates. The procedure:
(§1) MIC for RW01 was also tested.
(§2) FIC of RW01 (FICRW01)=MIC of RW01 in combination/MIC of RW01 alone,FIC of antibiotic (FICATB)=MIC of ATB in combination/MIC of ATB alone,FICI=FICRW01 +FICATB.
(§3) FICI was interpreted as follows: synergistic effect if FICI is ≤0.5; additive effect if 0.5 < FICI ≤ 1.0; indifferent effect if 1.0 < FICI ≤ 2.0; and finally, antagonistic effect if FICI is >2.0. The average FICI considering the antibiotic MIC (no growth in any of the replicates) at different concentrations of RW01 was calculated ([28]).
(In broth dilution the organism is exposed to a series of concentrations in liquid medium.)

For the next assay, the system named is P. aeruginosa 125B. The assay is described as above. It is filed as cell-based, Pseudomonas aeruginosa. The following applies: strain 125B; for MIC: Pseudomonas aeruginosa, agent alone, 37°C, 18–22 h, three biological replicates. The procedure:
as §1, §2, §3

A further assay relates to P. aeruginosa 41A. The description is as above. In kind it is cell-based, Pseudomonas aeruginosa. The following applies: Pseudomonas aeruginosa; strain 41A; agent alone; 37°C, 18–22 h; three biological replicates. The procedure: as §1, §2, §3
A further assay has as its system P. aeruginosa 41B. Described as above. Conditions: Pseudomonas aeruginosa; strain 41B; agent alone; 37°C, 18–22 h; three biological replicates. It is filed as cell-based, Pseudomonas aeruginosa. The procedure:
as §1, §2, §3

The subject of a further assay is P. aeruginosa PAO1. The assay is described as above. The following applies: Pseudomonas aeruginosa, PAO1, strain PAO1; agent alone; 37°C, 18–22 h; three biological replicates; read-out: MIC. In kind it is cell-based, Pseudomonas aeruginosa. The procedure: as §1, §2, §3
The subject of the next assay is P. aeruginosa PAOUW. The assay is described as above. It is filed as cell-based, Pseudomonas aeruginosa. Conditions: Pseudomonas aeruginosa, strain PAOUW; agent alone; 37°C, 18–22 h; three biological replicates; read-out: MIC. On the procedure: as §1, §2, §3
The test system of the next assay is P. aeruginosa PAOUW∆oprF. The description is as above. It is filed as cell-based, Pseudomonas aeruginosa. Conditions: Pseudomonas aeruginosa, strain PAOUWΔoprF; agent alone; 37°C, 18–22 h; three biological replicates. On the procedure: as §1, §2, §3
In the next assay the test system is P. aeruginosa PAOΔmexR. The assay is described as above. Conditions: Pseudomonas aeruginosa. It is filed as cell-based, Pseudomonas aeruginosa. On the procedure: as §1, §2, §3
The test system of a further assay is P. aeruginosa PAOΔmexZ. The description is as above. Conditions: Pseudomonas aeruginosa, strain PAOΔmexZ; agent alone; 37°C, 18–22 h; three biological replicates. In kind it is cell-based, Pseudomonas aeruginosa. The procedure:
as §1, §2, §3

A further assay has as its system P. aeruginosa PAOΔoprM. The description is as above. In kind it is cell-based, Pseudomonas aeruginosa. Conditions: Pseudomonas aeruginosa. On the procedure:
as §1, §2, §3

Assay [1] deals with PAO1 mutant MIN16_3, nfxB(nt79∆14), pilB(N349K). Briefly: MIC, Sensititre custom plate. In kind it is cell-based. The following applies: Pseudomonas aeruginosa, PAO1, read-out: MIC, Sensititre. On the procedure:
(§4) Selection of resistant mutants was performed for minocycline with and without RW01 in three independent replicates for wild-type P. aeruginosa reference strain PAO1. Tubes containing Mueller-Hinton broth (MHB) were inoculated and incubated for 24 h at 37°C. Afterward, 1/100 dilution of each tube was incubated at 37°C in MHB to late-exponential growth phase, measured by spectrophotometry at OD600. […] A control plate without antibiotic was included as inoculum control. After overnight incubation, colony counting of each treatment was performed to analyze the generation of resistant population. The mutant prevention concentration (MPC) was defined as the lowest concentration of antibiotic yielding no growth of resistant mutants. Selected mutants were checked for susceptibility profiles by using a Sensititre custom plate (Thermo Fisher Scientific, Massachusetts, USA) for Gram-negative bacteria, following the manufacturer’s instructions.

Assay [2] deals with PAO1 mutant MIN16_4, nalC(T50P), pilM(Q62X). Briefly: MIC, Sensititre custom plate. It is filed as cell-based. Conditions: Pseudomonas aeruginosa, PAO1, read-out: MIC, Sensititre. The procedure:
as §4

The test system of assay [3] is PAO1 mutant MIN1_RW01_2, mexR(G58E), pilB(G326D), hutC(Y181X). Briefly: MIC, Sensititre custom plate. The following applies: Pseudomonas aeruginosa, PAO1, read-out: MIC, Sensititre. In kind it is cell-based. The procedure:
as §4

Assay [4] has as its system PAO1 mutant MIN2_RW01_3, parS(V152A). Briefly: MIC, Sensititre custom plate. The following applies: Pseudomonas aeruginosa, PAO1, read-out: MIC, Sensititre. It is filed as cell-based. On the procedure:
as §4

The subject of assay [5] is PAO1 mutant MIN2_RW01_4, pmrB(M292T). Briefly: MIC, Sensititre custom plate. Conditions: Pseudomonas aeruginosa, PAO1, read-out: MIC, Sensititre. It is filed as cell-based. The procedure:
as §4

Assay [6] relates to PAO1 mutant MIN32_1, mexR(R63H), pilB(N349K), PA0646(V316G). Briefly: MIC, Sensititre custom plate. The following applies: Pseudomonas aeruginosa, PAO1, read-out: MIC, Sensititre. In kind it is cell-based. On the procedure:
as §4

The subject of assay [7] is PAO1 mutant MIN4_RW01_1, pmrB(R429H). Briefly: MIC, Sensititre custom plate. It is filed as cell-based. Conditions: Pseudomonas aeruginosa, PAO1, read-out: MIC, Sensititre. On the procedure: as §4
The subject of assay [8] is PAO1 mutant MIN8_3, pilZ(nt18InsT). Briefly: MIC, Sensititre custom plate. It is filed as cell-based. The following applies: Pseudomonas aeruginosa, PAO1, read-out: MIC, Sensititre. The procedure: as §4
In assay [9] the test system is PAO1 mutant MIN8_4, pilZ(nt18InsT). Briefly: MIC, Sensititre custom plate. Conditions: Pseudomonas aeruginosa, PAO1, read-out: MIC, Sensititre. In kind it is cell-based. On the procedure:
as §4

Setting [10] is: antibiotic MIC alone vs with RW01 100 mg/L.

In brackets after ≈: the same amount, converted by molar mass.

Here are results for four compounds from paper PMC11823630, “In vitro potentiation of tetracyclines in Pseudomonas aeruginosa by RW01, a new cyclic peptide” (Antimicrobial Agents and Chemotherapy, 2024).

What is called MIC is the smallest concentration in the dilution series that meets the test's criterion for growth inhibition.

Turning to `C[C@H]1COc2c(N3CCN(C)CC3)c(F)cc3c(=O)c(C(=O)O)cn1c23` [Levofloxacin, levofloxacin], the MIC in the assay with P. aeruginosa 125A was determined as 0.5 µg/mL; in the assay on P. aeruginosa 125B it was 0.5 µg/mL; with P. aeruginosa 41A, 2 µg/mL; in the assay on P. aeruginosa 41B, 1 µg/mL; in the assay on P. aeruginosa PAO1, 0.5 µg/mL; with P. aeruginosa PAOUW, 4 µg/mL. Also, the MIC in the assay with P. aeruginosa PAOUW∆oprF was 0.5 µg/mL; in the assay on P. aeruginosa PAOΔmexR, 0.5 µg/mL; in the assay on P. aeruginosa PAOΔmexZ it was 0.5 µg/mL; with P. aeruginosa PAOΔoprM, 0.125 µg/mL.
In the case of `CCn1cc(C(=O)O)c(=O)c2cc(F)c(N3CCNCC3)cc21` [Norfloxacin, norfloxacin], the MIC amounted to 1 µg/mL with P. aeruginosa 125A; 1 µg/mL in the assay on P. aeruginosa 125B; 2 µg/mL in the assay on P. aeruginosa 41A; 4 µg/mL in the assay with P. aeruginosa 41B; 0.5 µg/mL with P. aeruginosa PAO1; 4 µg/mL with P. aeruginosa PAOUW. Besides, the MIC in the assay on P. aeruginosa PAOUW∆oprF was 1 µg/mL; in the assay with P. aeruginosa PAOΔmexR, 1 µg/mL; in the assay with P. aeruginosa PAOΔmexZ it was 1 µg/mL; in the assay with P. aeruginosa PAOΔoprM, 0.25 µg/mL.
As for `O=C(O)c1cn(C2CC2)c2cc(N3CCNCC3)c(F)cc2c1=O` [CIP, ciprofloxacin], the MIC in assay [1] is 4 µg/mL (≈ 12.1 µM); in assay [2] it was 0.5 µg/mL (≈ 1.51 µM); in assay [3], 0.5 µg/mL (≈ 1.51 µM); in assay [4], 0.5 µg/mL (≈ 1.51 µM); in assay [5], 0.5 to 1 µg/mL (≈ 1.51 to 3.02 µM); in [6] it was 0.5 µg/mL (≈ 1.51 µM). Moreover, the MIC in assay [7], in assay [8] and in assay [9] was 0.5 µg/mL (≈ 1.51 µM) throughout.
For the compound `O=C(N[C@H](CO)[C@H](O)c1ccc([N+](=O)[O-])cc1)C(Cl)Cl` [Chloramphenicol, chloramphenicol], the MIC was 128 µg/mL in the assay with P. aeruginosa 125A; 64 µg/mL with P. aeruginosa 125B; 128 µg/mL in the assay with P. aeruginosa 41A; 128 µg/mL in the assay with P. aeruginosa 41B; 32 µg/mL with P. aeruginosa PAO1; greater than 512 µg/mL in the assay on P. aeruginosa PAOUW. Besides, the MIC in the assay with P. aeruginosa PAOUW∆oprF was 32 µg/mL; in the assay with P. aeruginosa PAOΔmexR, 32 µg/mL; in the assay on P. aeruginosa PAOΔmexZ it was 32 µg/mL; in the assay on P. aeruginosa PAOΔoprM it was 4 µg/mL. In addition, the “Potentiation (fold)” value with P. aeruginosa 125A (setting [10]) and with P. aeruginosa 125B (setting [10]) was no less than 8 fold each time.
